Data on 25 compounds can be found in US20210380606A1, “5-AZAINDAZOLE DERIVATIVES AS ADENOSINE RECEPTOR ANTAGONISTS” (Merck Patent GmbH, priority 2018, published 2021).

One assay deals with T1, human A2B receptors (Homo sapiens, UniProt P29275).
T1 construct: expressed in transfected cells; host or cells: HEK293
T1 sequence (P29275 1-332): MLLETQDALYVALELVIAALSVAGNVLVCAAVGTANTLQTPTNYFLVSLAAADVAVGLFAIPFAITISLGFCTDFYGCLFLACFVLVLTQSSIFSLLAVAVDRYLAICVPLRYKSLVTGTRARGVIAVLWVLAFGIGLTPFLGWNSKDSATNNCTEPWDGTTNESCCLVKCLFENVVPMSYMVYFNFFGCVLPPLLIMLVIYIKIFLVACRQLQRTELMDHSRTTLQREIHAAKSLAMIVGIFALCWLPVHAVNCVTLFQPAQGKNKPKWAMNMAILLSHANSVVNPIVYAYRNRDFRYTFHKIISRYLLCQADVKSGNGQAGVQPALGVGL
Briefly: Functional human A2B receptor activity, recombinant HEK293 cells, cAMP (HTRF). Type of assay: cell-based. Particulars: read-out: A2B (Category). Put shortly:
(§1)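 15 min incubation → HTRF cAMP reagents added → cellular cAMP read on plate reader. cAMP serves as adenosine receptor second messenger.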

For another assay, the target named is T2, human A2A receptors (Homo sapiens, UniProt P29274).
T2 construct: expressed in transfected cells; host or cells: HEK293
Briefly: Functional human A2A receptor activity, recombinant HEK293 cells, cAMP (HTRF). The class given is cell-based. Particulars: read-out: A2A (Category). Put shortly: as §1
A general note: TR-FRET usually uses a lanthanide donor and a delayed reading to cut background.

T2 sequence (P29274 whole entry): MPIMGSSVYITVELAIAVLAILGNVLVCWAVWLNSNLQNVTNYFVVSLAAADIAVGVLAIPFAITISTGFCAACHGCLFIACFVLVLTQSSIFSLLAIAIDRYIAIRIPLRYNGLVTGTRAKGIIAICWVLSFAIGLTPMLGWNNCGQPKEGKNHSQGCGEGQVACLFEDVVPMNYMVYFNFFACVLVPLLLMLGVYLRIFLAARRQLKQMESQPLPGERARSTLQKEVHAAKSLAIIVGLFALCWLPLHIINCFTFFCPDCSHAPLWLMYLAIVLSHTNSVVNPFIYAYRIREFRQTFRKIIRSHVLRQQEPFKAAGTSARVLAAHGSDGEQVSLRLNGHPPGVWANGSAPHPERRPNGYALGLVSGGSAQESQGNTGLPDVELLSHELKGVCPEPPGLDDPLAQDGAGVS

Turning to `CC1(O)CCN(C(=O)c2cc3c(cn2)c(-c2cnn4ccccc24)nn3CC(F)(F)F)CC1` [Compound 117, (4-hydroxy-4-methyl-1-piperidyl)-[3-pyrazolo[1,5-a]pyridin-3-yl-1-(2,2,2-trifluoroethyl)pyrazolo[4,3-c]pyridin-6-yl]methanone], the results for the IC50 at human A2B receptors and at human A2A receptors were below 1 µM and below 0.1 µM, respectively.
Consider `[2H]C1([2H])COCCN(C(=O)c2cc3c(cn2)c(-c2coc4ccccc24)nn3CC(F)(F)F)C1` [Compound 229, [3-(benzofuran-3-yl)-1-(2,2,2-trifluoroethyl)pyrazolo[4,3-c]pyridin-6-yl]-(6,6-dideuterio-1,4-oxazepan-4-yl)methanone], for which the IC50 on human A2B receptors and at human A2A receptors was below 0.1 µM throughout.
As for `CS(=O)(=O)Cn1nc(-c2cnc3c(F)cc(F)cn23)c2cnc(C(=O)N3CC4CCC(C4)C3)cc21` [Compound 23, (3-Aza-bicyclo[3.2.1]oct-3-yl)-[3-(6,8-difluoro-imidazo[1,2-a]pyridin-3-yl)-1-methanesulfonylmethyl-1H-pyrazolo[4,3-c]pyridin-6-yl]-methanone], the IC50 on human A2B receptors and on human A2A receptors was below 0.1 µM throughout.
For `CC1(O)CCN(C(=O)c2cc3c(cn2)c(-c2coc4ccc(F)cc24)nn3CC(F)(F)F)CC1` [Compound 116, [3-(5-fluorobenzofuran-3-yl)-1-(2,2,2-trifluoroethyl)pyrazolo[4,3-c]pyridin-6-yl]-(4-hydroxy-4-methyl-1-piperidyl)methanone], the IC50 on human A2B receptors and at human A2A receptors was below 0.1 µM each time.
Consider `O=C(c1cc2c(cn1)c(-c1coc3ccccc13)nn2CCF)N1[C@@H]2CC[C@H]1C[C@@H](O)C2` [Compound 221, [3-Benzofuran-3-yl-1-(2-fluoro-ethyl)-1H-pyrazolo[4,3-c]pyridin-6-yl]-(3-endo-hydroxy-8-aza-bicyclo[3.2.1]oct-8-yl)-methanone], for which the IC50 at human A2B receptors and on human A2A receptors was below 0.1 µM in each case.
For `Cc1ccc2ncc(-c3nn(CC(F)(F)F)c4cc(C(=O)N5CCCCCC5)ncc34)n2c1` [Compound 61, Azepan-1-yl-[3-(6-methyl-imidazo[1,2-a]pyridin-3-yl)-1-(2,2,2-trifluoro-ethyl)-1H-pyrazolo[4,3-c]pyridin-6-yl]-methanone], the values for the IC50 on human A2B receptors and on human A2A receptors were below 1 µM and below 0.1 µM, respectively.
Consider `O=C(c1cc2c(cn1)c(-c1coc3ccc(F)cc13)nn2CC(F)(F)F)N1CCCC(O)CC1` (centres unmarked) [Compound 122, [3-(5-fluorobenzofuran-3-yl)-1-(2,2,2-trifluoroethyl)pyrazolo[4,3-c]pyridin-6-yl]-(4-hydroxyazepan-1-yl)methanone], for which the IC50 at human A2B receptors and on human A2A receptors was below 0.1 µM each time.
Consider `O=C(c1cc2c(cn1)c(-c1cnc3c(F)cc(F)cn13)nn2CC(F)(F)F)N1CCC(O)C(F)(F)C1` (centres unmarked) [Compound 203, (3,3-Difluoro-4-hydroxy-piperidin-1-yl)-[3-(6,8-difluoro-imidazo[1,2-a]pyridin-3-yl)-1-(2,2,2-trifluoro-ethyl)-1H-pyrazolo[4,3-c]pyridin-6-yl]-methanone], for which the IC50 is below 1 µM on human A2B receptors and below 0.1 µM at human A2A receptors.
With `O=C(c1cc2c(cn1)c(-c1cnc3c(F)cc(F)cn13)nn2CC(F)(F)F)N1CCCCC(O)C1` (racemic) [Compound 134, [3-(6,8-Difluoro-imidazo[1,2-a]pyridin-3-yl)-1-(2,2,2-trifluoro-ethyl)-1H-pyrazolo[4,3-c]pyridin-6-yl]-(3-hydroxy-azepan-1-yl)-methanone], the IC50 on human A2B receptors is below 1 µM; at human A2A receptors, below 0.1 µM.
For the compound `O=C(c1cc2c(cn1)c(-c1cnn3ccncc13)nn2CC(F)(F)F)N1CCCOCC1` [Compound 249, 1,4-Oxazepan-4-yl-[3-pyrazolo[1,5-a]pyrazin-3-yl-1-(2,2,2-trifluoro-ethyl)-1H-pyrazolo[4,3-c]pyridin-6-yl]-methanone], the IC50 at human A2B receptors is below 1 µM; on human A2A receptors, below 0.1 µM.
Taken in the same sequence, the figures for `O=C(c1cc2c(cn1)c(-c1c[nH]c3ccc(F)cc13)nn2CC(F)(F)F)N1CCCOCC1` [Compound 123, [3-(5-fluoro-1H-indol-3-yl)-1-(2,2,2-trifluoroethyl)pyrazolo[4,3-c]pyridin-6-yl]-(1,4-oxazepan-4-yl)methanone] were below 0.1 µM and below 0.1 µM.
Taken in the same sequence, the figures for `CC1(C)CN(C(=O)c2cc3c(cn2)c(-c2cnc4c(F)cc(F)cn24)nn3CC(F)(F)F)CCCO1` [Compound 182, [3-(6,8-Difluoro-imidazo[1,2-a]pyridin-3-yl)-1-(2,2,2-trifluoro-ethyl)-1H-pyrazolo[4,3-c]pyridin-6-yl]-(2,2-dimethyl-1,4-oxazepan-4-yl)-methanone] were below 1 µM and below 0.1 µM.
Taken in the same sequence, the figures for `CS(=O)(=O)Cn1nc(-c2coc3ccccc23)c2cnc(C(=O)N3CCCC(F)(F)C3)cc21` [Compound 39, (3-Benzofuran-3-yl-1-methanesulfonylmethyl-1H-pyrazolo[4,3-c]pyridin-6-yl)-(3,3-difluoro-piperidin-1-yl)-methanone] were below 0.1 µM and below 0.1 µM.
With `CS(=O)(=O)Cn1nc(-c2coc3ccccc23)c2cnc(C(=O)N3CC4CCC(C3)O4)cc21` [Compound 107, (3-Benzofuran-3-yl-1-methanesulfonylmethyl-1H-pyrazolo[4,3-c]pyridine-6-yl)-(8-oxa-3-aza-bicyclo[3.2.1]oct-3-yl)-methanone], the IC50 on human A2B receptors and at human A2A receptors was below 0.1 µM throughout.
As for `O=C(c1cc2c(cn1)c(-c1coc3ccccc13)nn2CC(F)(F)F)N1CCCCCC1` [Compound 90, Azepan-1-yl-[3-benzofuran-3-yl-1-(2,2,2-trifluoro-ethyl)-1H-pyrazolo[4,3-c]pyridin-6-yl]-methanone], the IC50 at human A2B receptors and at human A2A receptors was below 0.1 µM in each case.
As for `N#CCn1nc(-c2coc3ccccc23)c2cnc(C(=O)N3CCCOCC3)cc21` [Compound 13, [3-Benzofuran-3-yl-6-(1,4-oxazepane-4-carbonyl)-pyrazolo[4,3-c]pyridin-1-yl]-acetonitrile], the IC50 is below 1 µM on human A2B receptors and below 0.1 µM on human A2A receptors.
For the compound `CS(=O)(=O)Cn1nc(-c2coc3ccccc23)c2cnc(C(=O)N3CCCOCC3)cc21` [Compound 16, (3-Benzofuran-3-yl-1-methanesulfonylmethyl-1H-pyrazolo[4,3-c]pyridine-6-yl)-1,4-oxazepan-4-yl-methanone], the IC50 on human A2B receptors and at human A2A receptors was below 0.1 µM each time.
On to `O=C(c1cc2c(cn1)c(-c1cnc3c(F)cc(F)cn13)nn2CC(F)(F)F)N1CCCC(CO)C1` (centres unmarked) [Compound 161, [3-(6,8-Difluoro-imidazo[1,2-a]pyridin-3-yl)-1-(2,2,2-trifluoro-ethyl)-1H-pyrazolo[4,3-c]pyridin-6-yl]-(3-hydroxymethyl-piperidin-1-yl)-methanone], for which the results for the IC50 at human A2B receptors and at human A2A receptors were below 1 µM and below 0.1 µM, respectively.
As to `Cc1oc2ccccc2c1-c1nn(CC(F)(F)F)c2cc(C(=O)N3CCCOCC3)ncc12` [Compound 126, [3-(2-methylbenzofuran-3-yl)-1-(2,2,2-trifluoroethyl)pyrazolo[4,3-c]pyridin-6-yl]-(1,4-oxazepan-4-yl)methanone], the IC50 on human A2B receptors is below 1 µM; at human A2A receptors, below 0.1 µM.
`[2H]C1([2H])COCCN(C(=O)c2cc3c(cn2)c(-c2coc4ccc(F)cc24)nn3CC(F)(F)F)C1` [Compound 120, [3-(5-fluorobenzofuran-3-yl)-1-(2,2,2-trifluoroethyl)pyrazolo[4,3-c]pyridin-6-yl]-(6,6-dideuterio-1,4-oxazepan-4-yl)methanone]: the IC50 on human A2B receptors and on human A2A receptors was below 0.1 µM each time.
Consider `C#CC1(O)C2CCC1CN(C(=O)c1cc3c(cn1)c(-c1coc4ccccc14)nn3CC(F)(F)F)C2` (centres unmarked) [Compound 214], for which the IC50 on human A2B receptors is below 1 µM; at human A2A receptors, below 0.1 µM.
Consider `CS(=O)(=O)Cn1nc(-c2coc3ccccc23)c2cnc(C(=O)N3CC4CCC(C4)C3)cc21` [Compound 19, (3-Aza-bicyclo[3.2.1]oct-3-yl)-(3-benzofuran-3-yl-1-methanesulfonylmethyl-1H-pyrazolo[4,3-c]pyridin-6-yl)-methanone], for which the IC50 at human A2B receptors and at human A2A receptors was below 0.1 µM throughout.
In the case of `O=C(c1cc2c(cn1)c(-c1cnn3ccccc13)nn2CC(F)(F)F)N1CC2CCC(C2)C1` [Compound 102, (3-Aza-bicyclo[3.2.1]oct-3-yl)-[3-pyrazolo[1,5-a]pyridin-3-yl-1-(2,2,2-trifluoro-ethyl)-1H-pyrazolo[4,3-c]pyridin-6-yl]-methanone], the IC50 on human A2B receptors and at human A2A receptors was below 0.1 µM in each case.
On to `O=C(c1cc2c(cn1)c(-c1coc3ccccc13)nn2CC(F)(F)F)N1CCCC(O)C1` (centres unmarked) [Compound 227, [3-Benzofuran-3-yl-1-(2,2,2-trifluoro-ethyl)-1H-pyrazolo[4,3-c]pyridin-6-yl]-(3-hydroxy-piperidin-1-yl)-methanone], for which the IC50 at human A2B receptors and on human A2A receptors was below 0.1 µM each time.
Consider `CS(=O)(=O)Cn1nc(-c2coc3ccccc23)c2cnc(C(=O)N3[C@@H]4CC[C@H]3C[C@@H](O)C4)cc21` [Compound 37, [3-(benzofuran-3-yl)-1-(methylsulfonylmethyl)pyrazolo[4,3-c]pyridin-6-yl]-(3-endo-hydroxy-8-azabicyclo[3.2.1]octan-8-yl)methanone], for which the IC50 on human A2B receptors and at human A2A receptors was below 0.1 µM in each case.
